Patent publication US12320799B2, “Methods of measuring signaling pathway activity for selection of therapeutic agents” (Celcuity Inc., priority 2017, dated 2025)
Read-outs that look alike come from different tables or passages of the source. Each block holds one substance with its values, some of them ahead of it.

Legend:
EGF pathway = experiment: Pathway ultrasensitivity test (EC90/EC10 of activator agent), impedance biosensor; format: cell-based, human; conditions: for EC90: read-out: EC90 Concentration
From the text: (§1) Biosensor and transducer: A 96-well impendence E-Plate (ACEA, San Diego, CA) was placed onto an xCELLigence RTCA MP Station impendence biosensor (ACEA, San Diego, CA). The biosensor measured simultaneously the impedance of every well. The change in impedance for a particular well is proportional to the number of cells and type of attachment the cells have with the impedance microplate. Changes in impedance indicate a response to activation of these small cell populations. Coatings: The 96-E-Plate were wells were coated with fibronectin and or collagen. Collagen is purchased from Advanced BioMatrix (Carlsbad, CA) and fibronectin from Sigma-Aldrich (St. Louis, MO). Tissue and cell samples: Five different samples of human cells from breast tumors (R131, R39, R36, R20, R82) and two different samples of human cells from non-small cell lung cancer (NSCLC) tumors were studied (C15 and C23). Any biomarkers that are used to guide selection of targeted therapy are listed in Table 20 for each patient if they were present. Signaling Pathways activator: NRG1, a HER3 agonist, was used to stimulate the HER3 pathway in each of the five breast cancer cell samples. The EC90 and EC10 concentrations of the signaling pathway activator agent were also derived for each breast cancer sample.
(§2) In each of the two NSCLC cell samples, four different activating agents were used to stimulate either the EGF or HER3 pathways. The EC90 and EC10 concentrations of the signaling pathway activator agent were also derived for each NSCLC cell sample.
(§3) Other Reagents: Standard media antibiotics (e.g. penicillin, streptomycin) and other buffers were purchased and used as delivered from ATCC (Manassas, VA, USA) or Life Technologies (Grand Island, NY). Procedure: For each test of a patient cell sample with two different concentrations of signaling pathway activator, six wells were seeded with approximately 15,000 cells in 120 uL culture media. […] The impedance recording of attachment and adhesion change was performed at 37° C., 5% CO2. Data was recorded on a continuous basis throughout the test, where the data presented is from the initial baseline level of cell attachment compared to the subsequent effects following the additions of two concentrations of the signaling pathway activator agent on the 12 different patient samples. Results:
(§4) For each patient cell sample tested, output values were calculated for the signaling pathway activity measured after addition of the two different concentrations of the signaling pathway activator agent. To determine the sensitivity of the signaling pathway to the signaling pathway activator agent, the sensitivity was calculated using the two output values. When the ratio of the EC90 to EC10 is less than 81, the pathway is considered to be ultra-sensitive; otherwise the pathway is considered to be normally sensitive.

HER3 pathway = experiment: as above; format: cell-based, human; conditions: for EC90: read-out: EC90 Concentration
From the text: as §1, §2, §3, §4

[1] = NSCLC cell sample C15, EGF pathway
[2] = NSCLC cell sample C23, EGF pathway
[3] = NSCLC cell sample C23, HER3 pathway

Substance: HB-EGF
Pathway Sensitivity Status (normal or ultra) (EGF pathway; [1]): Ultra (When the ratio of the EC90 to EC10 is less than 81, the pathway is considered to be ultra-sensitive)
Sensitivity Calculation Result (ratio of the EC90 to EC10 of activating agent) (EGF pathway; [1]): 63.75
Pathway Sensitivity Status (normal or ultra) (EGF pathway; [2]): Ultra (When the ratio of the EC90 to EC10 is less than 81, the pathway is considered to be ultra-sensitive)
Sensitivity Calculation Result (ratio of the EC90 to EC10 of activating agent) (EGF pathway; [2]): 66.67
EC10 Concentration (EGF pathway; NSCLC tumor cell sample C15): 0.0016 nM
EC90 (EGF pathway; NSCLC tumor cell sample C15): 0.102 nM
EC10 Concentration (EGF pathway; NSCLC tumor cell sample C23): 0.003 nM
EC90 (EGF pathway; NSCLC tumor cell sample C23): 0.2 nM

Substance: TGF alpha
Pathway Sensitivity Status (normal or ultra) (EGF pathway; [1]): Ultra (When the ratio of the EC90 to EC10 is less than 81, the pathway is considered to be ultra-sensitive)
Sensitivity Calculation Result (ratio of the EC90 to EC10 of activating agent) (EGF pathway; [1]): 44.15
Pathway Sensitivity Status (normal or ultra) (EGF pathway; [2]): Ultra (When the ratio of the EC90 to EC10 is less than 81, the pathway is considered to be ultra-sensitive)
Sensitivity Calculation Result (ratio of the EC90 to EC10 of activating agent) (EGF pathway; [2]): 21.25
EC10 Concentration (EGF pathway; NSCLC tumor cell sample C15): 0.0082 nM
EC90 (EGF pathway; NSCLC tumor cell sample C15): 0.362 nM
EC10 Concentration (EGF pathway; NSCLC tumor cell sample C23): 0.0088 nM
EC90 (EGF pathway; NSCLC tumor cell sample C23): 0.187 nM

Further lines, with some results ahead:

Sensitivity Calculation Result (ratio of the EC90 to EC10 of activating agent) (EGF pathway; [1]): 41.67
Sensitivity Calculation Result (ratio of the EC90 to EC10 of activating agent) (EGF pathway; [2]): 29.39
EC90 (EGF pathway; NSCLC tumor cell sample C15): 0.1 nM
EC90 (EGF pathway; NSCLC tumor cell sample C23): 0.194 nM
Substance: Betacellulin
Pathway Sensitivity Status (normal or ultra) (EGF pathway; [1]): Ultra (When the ratio of the EC90 to EC10 is less than 81, the pathway is considered to be ultra-sensitive)
Pathway Sensitivity Status (normal or ultra) (EGF pathway; [2]): Ultra (When the ratio of the EC90 to EC10 is less than 81, the pathway is considered to be ultra-sensitive)
EC10 Concentration (EGF pathway; NSCLC tumor cell sample C15): 0.0024 nM
EC10 Concentration (EGF pathway; NSCLC tumor cell sample C23): 0.0066 nM

Sensitivity Calculation Result (ratio of the EC90 to EC10 of activating agent) (EGF pathway; [1]): 65.65
EC90 (EGF pathway; NSCLC tumor cell sample C15): 3 nM
Substance: Amphiregulin
Pathway Sensitivity Status (normal or ultra) (EGF pathway; [1]): Ultra (When the ratio of the EC90 to EC10 is less than 81, the pathway is considered to be ultra-sensitive)
EC10 Concentration (EGF pathway; NSCLC tumor cell sample C15): 0.0457 nM

Sensitivity Calculation Result (ratio of the EC90 to EC10 of activating agent) (HER3 pathway; [3]): 11.19
EC90 (HER3 pathway; NSCLC tumor cell sample C23): 4.46 nM
Sensitivity Calculation Result (EC90/EC10 ratio) (HER3 pathway; breast tumor cell sample R20): 18.44
EC90 (HER3 pathway; breast tumor cell sample R20): 2.14 nM
Sensitivity Calculation Result (EC90/EC10 ratio) (HER3 pathway; breast tumor cell sample R36): 27.61
EC90 (HER3 pathway; breast tumor cell sample R36): 1.96 nM
Sensitivity Calculation Result (EC90/EC10 ratio) (HER3 pathway; breast tumor cell sample R39): 45.96
EC90 (HER3 pathway; breast tumor cell sample R39): 1.6 nM
Sensitivity Calculation Result (EC90/EC10 ratio) (HER3 pathway; breast tumor cell sample R82): 95.1
EC90 (HER3 pathway; breast tumor cell sample R82): 1.79 nM
Sensitivity Calculation Result (EC90/EC10 ratio) (HER3 pathway; breast tumor cell sample R131): 38.32
EC90 (HER3 pathway; breast tumor cell sample R131): 1.23 nM
Substance: NRG1
Pathway Sensitivity Status (normal or ultra) (HER3 pathway; [3]): Ultra (When the ratio of the EC90 to EC10 is less than 81, the pathway is considered to be ultra-sensitive)
EC10 Concentration (HER3 pathway; NSCLC tumor cell sample C23): 0.399 nM
EC10 Concentration (HER3 pathway; breast tumor cell sample R20): 0.236 nM
Pathway Sensitivity Status (normal or ultra) (HER3 pathway; breast tumor cell sample R20): Ultra (When the ratio of the EC90 to EC10 is less than 81, the pathway is considered to be ultra-sensitive)
EC10 Concentration (HER3 pathway; breast tumor cell sample R36): 0.215 nM
Pathway Sensitivity Status (normal or ultra) (HER3 pathway; breast tumor cell sample R36): Ultra (When the ratio of the EC90 to EC10 is less than 81, the pathway is considered to be ultra-sensitive)
EC10 Concentration (HER3 pathway; breast tumor cell sample R39): 0.173 nM
Pathway Sensitivity Status (normal or ultra) (HER3 pathway; breast tumor cell sample R39): Ultra (When the ratio of the EC90 to EC10 is less than 81, the pathway is considered to be ultra-sensitive)
EC10 Concentration (HER3 pathway; breast tumor cell sample R82): 0.193 nM
Pathway Sensitivity Status (normal or ultra) (HER3 pathway; breast tumor cell sample R82): Normal (otherwise the pathway is considered to be normally sensitive)
EC10 Concentration (HER3 pathway; breast tumor cell sample R131): 0.133 nM
Pathway Sensitivity Status (normal or ultra) (HER3 pathway; breast tumor cell sample R131): Ultra (When the ratio of the EC90 to EC10 is less than 81, the pathway is considered to be ultra-sensitive)
